Reference: patent publication US11571480B2, “Multi-ligand drug conjugates and uses thereof” (priority 2015, dated 2023)
Square brackets hold non-standard residues; d marks the D form. Peptide text beside a SMILES is read from it. * marks the point of attachment. Dolaproine = CO[C@@H]([C@@H]1CCCN1)[C@@H](C)C(=O)O; Dil = CC[C@H](C)[C@H](NC)[C@@H](CC(=O)O)OC; X1 = C[C@@H](N*)[C@@H](O)c1ccccc1; NMeV = CN[C@H](C(=O)O)C(C)C

Key:
[1] = tested on: chronic myeloid leukemia cell line K562; experiment: Cytotoxicity test of conjugate LDC10B; assay type: cell-based; details: K562, Incubation Time 30 min
Protocol: (§1) Culture medium: RPMI 1640 Medium, no folic acid
(§2) 1) human nasopharyngeal cancer cell line KB, melanoma cell line A375, human lung cancer cell H1299, chronic myeloid leukemia cell line K562, human lung cancer cell H460, ovarian cancer cell SKOV3, breast cancer cell line HCC1954, human gastric cancer cell N87, and human breast cancer cell SK-BR-3 were incubated at 37° C., 5% CO2 in RPMI 1640 medium containing 10% fetal bovine serum, the cells were passaged every 2-3 days.
(§3) 2) human nasopharyngeal cancer cell line KB, melanoma cell line A375, human lung cancer cell H1299, chronic myeloid leukemia cell line K562, human lung cancer cell H460, ovarian cancer cell SKOV3, breast cancer cell line HCC1954, human gastric cancer cell N87, and human breast cancer cell SK-BR-3 were plated at 1×10^3 cells per well (96-well plate) and incubated for 8-12 h at 37° C., 5% CO2.
(§4) 3) Stock solutions of LDC conjugates or controls were prepared in PBS solution. 100 μL/well of serially diluted LDC conjugates or controls was added to the test cells in the plates and incubated for 15-30 min at 37° C., 5% CO2. The culture medium in the wells was then removed by aspiration and the test cells were incubated in fresh culture medium without conjugates (150 μL/well) for 2-3 days at 37° C., 5% CO2.
(§5) 4) CellTiter 96® Aqueous One Solution Cell Proliferation Assay (Promega) was added to each well to measure the amount of […] cells, and each plate was incubated in an incubator for 1 h at 37° C., 5% CO2.
(§6) 5) Each plate was read at 490 nm on a microplate reader, and the cell survivals were compared for test cells with or without the treatment of LDC conjugates. The LDC drug concentrations that are required for 50% cell death (IC50 values) were determined.

[2] = tested on: human breast cancer cell SK-BR-3; experiment: Cytotoxicity test of conjugate LDC10B; assay type: cell-based; details: SK-BR-3, Incubation Time 30 min
Protocol: as §1, §2, §3, §4, §5, §6

[3] = tested on: human gastric cancer cell N87; experiment: Cytotoxicity test of conjugate LDC10B; assay type: cell-based; details: N87, Incubation Time 30 min
Protocol: as §1, §2, §3, §4, §5, §6

[4] = tested on: human lung cancer cell H1299; experiment: Cytotoxicity test of conjugate LDC10B; assay type: cell-based; details: H1299, Incubation Time 30 min
Protocol: as §1, §2, §3, §4, §5, §6

[5] = tested on: human lung cancer cell H460; experiment: Cytotoxicity test of conjugate LDC10B; assay type: cell-based; details: H460, Incubation Time 30 min
Protocol: as §1, §2, §3, §4, §5, §6

[6] = tested on: human nasopharyngeal cancer cell line KB; experiment: Cytotoxicity test of conjugate LDC10B; assay type: cell-based; details: Incubation Time 15 min
Protocol: as §1, §2, §3, §4, §5, §6

melanoma cell line A375 [7] = experiment: Cytotoxicity test of conjugate LDC10B; assay type: cell-based; details: A375, Incubation Time 15 min
Protocol: as §1, §2, §3, §4, §5, §6

[8] = tested on: human embryonic kidney cell 293A; experiment: Cytotoxicity test of conjugate LDC11B; assay type: cell-based; details: incubated 15-30 min, then 2-3 days
Protocol: as §1
(§7) 1) human lung cancer cell H460, ovarian cancer cell SKOV3, human embryonic kidney cell 293A were incubated at 37° C., 5% CO2 in RPMI 1640 medium containing 10% fetal bovine serum, the cells were passaged every 2-3 days.
(§8) 2) human lung cancer cell H460, ovarian cancer cell SKOV3, human embryonic kidney cell 293A were plated at 1×10^3 cells per well (96-well plate) and incubated for 8-12 h at 37° C., 5% CO2.
as §4, with “control” for “controls”, “the” for “the test”, “plate” for “plates”
(§9) 4) CellTiter 96® Aqueous One Solution Cell Proliferation Assay (Promega) was added to each well to measure the amount of […] cells, and the plate was incubated in an incubator for 1 h at 37° C., 5% CO2.
(§10) 5) The plate was read at 490 nm on a microplate reader, and the cell survivals were compared for cells with or without the treatment of LDC conjugates. The LDC drug concentrations that are required for 50% cell death (IC50 values) were determined.

[9] = tested on: human lung cancer cell H460; experiment: Cytotoxicity test of conjugate LDC11B; assay type: cell-based; details: H460, incubated 15-30 min, then 2-3 days
Protocol: as §1, §7, §8
as §4, with “control” for “controls”, “the” for “the test”, “plate” for “plates”
as §9, §10

[10] = tested on: ovarian cancer cell SKOV3; experiment: Cytotoxicity test of conjugate LDC11B; assay type: cell-based, human; details: SKOV3, incubated 15-30 min, then 2-3 days
Protocol: as §1, §7, §8
as §4, with “control” for “controls”, “the” for “the test”, “plate” for “plates”
as §9, §10

[11] = tested on: breast cancer cell line HCC1954; experiment: Cytotoxicity test of conjugate LDC10H; assay type: cell-based, human; details: HCC1954, incubated 15-30 min, then 2-3 days
Protocol: as §1
(§11) 1) human lung cancer cell H1299, ovarian cancer cell SKOV3, breast cancer cell line HCC1954, and human lung cancer cell H460 were incubated at 37° C., 5% CO2 in RPMI 1640 medium containing 10% fetal bovine serum, the cells were passaged every 2-3 days.
(§12) 2) human lung cancer cell H1299, ovarian cancer cell SKOV3, breast cancer cell line HCC1954, and human lung cancer cell H460 were plated at 1×10^3 cells per well (96-well plate) and incubated for 8-12 h at 37° C., 5% CO2.
as §4, with “control” for “controls”, “the” for “the test”, “plate” for “plates”
as §9
(§13) 5) the plate was read at 490 nm on a microplate reader, and the cell survivals were compared for cells with or without the treatment of LDC conjugates. The LDC drug concentrations that are required for 50% cell death (IC50 values) were determined.

[12] = tested on: ovarian cancer cell SKOV3; experiment: Cytotoxicity test of conjugate LDC10H; assay type: cell-based, human; details: SKOV3, incubated 15-30 min, then 2-3 days
Protocol: as §1, §11, §12
as §4, with “control” for “controls”, “the” for “the test”, “plate” for “plates”
as §9, §13

[13] = tested on: human lung cancer cell H460; experiment: Cytotoxicity test of conjugate LDC1013; assay type: cell-based; details: H460, incubated 15-30 min, then 2-3 days
Protocol: as §1
(§14) 1) human nasopharyngeal cancer cell line KB, melanoma cell line A375, and human lung cancer cell H460 were incubated at 37° C., 5% CO2 in RPMI 1640 medium containing 10% fetal bovine serum, the cells were passaged every 2-3 days.
(§15) 2) human nasopharyngeal cancer cell line KB, melanoma cell line A375, and human lung cancer cell H460 were plated at 1×10^3 cells per well (96-well plate) and incubated for 8-12 h at 37° C., 5% CO2.
as §4, with “control” for “controls”, “the” for “the test”, “plate” for “plates”
as §9, §13

[14] = tested on: human nasopharyngeal cancer cell line KB; experiment: Cytotoxicity test of conjugate LDC1013; assay type: cell-based; details: incubated 15-30 min, then 2-3 days
Protocol: as §1, §14, §15
as §4, with “control” for “controls”, “the” for “the test”, “plate” for “plates”
as §9, §13

melanoma cell line A375 [15] = experiment: Cytotoxicity test of conjugate LDC1013; assay type: cell-based; details: A375, incubated 15-30 min, then 2-3 days
Protocol: as §1, §14, §15
as §4, with “control” for “controls”, “the” for “the test”, “plate” for “plates”
as §9, §13

`CC[C@H](C)[C@@H]([C@@H](CC(=O)N1CCC[C@H]1[C@H](OC)[C@@H](C)C(=O)N[C@H](C)[C@@H](O)c1ccccc1)OC)N(C)C(=O)[C@@H](NC(=O)[C@@H](NC)C(C)C)C(C)C` [MMAE] (H-[NMeV]V[Dil][Dolaproine]-X1) was tested, and the IC50 [1] was 0.54 nM, the IC50 [2] was 0.52 nM and the IC50 [3] was 0.68 nM. The IC50 [4] was 0.86 nM, the IC50 [5] was 0.77 nM and the IC50 [6] was 89 nM. The IC50 (melanoma cell line A375 [7]) was 100 nM, the IC50 [8] was 0.86 nM and the IC50 [9] was 0.58 nM. It also gave an IC50 [10] of 0.44 nM, an IC50 [11] of 0.29 nM and an IC50 [12] of 0.49 nM. The IC50 [13] was 37 nM, the IC50 [14] was 20 nM and the IC50 (melanoma cell line A375 [15]) was 85 nM.
